# According to patent US11168083B2, “Inhibitors of Plasma Kallikrein and uses thereof” (Takeda Pharmaceutical Company Limited, priority 2017, dated 2021):
# Biological target: human activated kallikrein enzyme (Homo sapiens (Human), UniProt P03952)
# Test: Inhibition of human activated kallikrein enzyme, fluorogenic peptide substrate assay (two formats)
# Format: biochemical
# Conditions: Table 2; column head prints nM, ranges defined in μM; read-out: pKal EC50
# Procedure: The example compounds were evaluated for inhibition of the human activated kallikrein enzyme in two formats of an assay employing a fluorogenic peptide substrate. In one assay format, the concentrations of reagents were as follows: 20 mM Tris pH 7.5, 1 mM EDTA, 150 mM sodium chloride, 0.1% PEG-400, 0.1% Triton X-100, 500 pM activated kallikrein enzyme, 300 uM Pro-Phe-Arg-7-amido-4-methylcoumarin substrate. Prior to reaction initiation with substrate, enzyme and inhibitors were preincubated for 30 min at room temperature. After initiation with substrate, reactions were incubated for 10 min at room temperature and fluorescence emission at 460 nm from 380 nm excitation measured with a microplate reader. In another assay format, the concentrations of reagents were as follows: 20 mM Tris pH 7.5, 1 mM EDTA, 150 mM sodium chloride, 0.1% PEG-400, 0.1% Triton X-100, 5 pM activated kallikrein enzyme, 300 uM Pro-Phe-Arg-7-amido-4-methylcoumarin substrate. Prior to reaction initiation with substrate, enzyme and inhibitors were preincubated for 30 min at room temperature. After initiation with substrate, reactions were incubated for 18 hr at room temperature and fluorescence emission at 460 nm from 380 nm excitation measured with a microplate reader.
# Sequence of human activated kallikrein enzyme (P03952 391-638): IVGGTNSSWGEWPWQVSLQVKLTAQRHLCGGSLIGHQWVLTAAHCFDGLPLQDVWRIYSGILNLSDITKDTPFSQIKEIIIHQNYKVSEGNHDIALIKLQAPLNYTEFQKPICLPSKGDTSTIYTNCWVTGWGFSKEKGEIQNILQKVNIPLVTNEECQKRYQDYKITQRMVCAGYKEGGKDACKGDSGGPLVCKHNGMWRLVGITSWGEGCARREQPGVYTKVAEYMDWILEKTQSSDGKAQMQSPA
# Sequence of human activated kallikrein enzyme (P03952 20-390 partner): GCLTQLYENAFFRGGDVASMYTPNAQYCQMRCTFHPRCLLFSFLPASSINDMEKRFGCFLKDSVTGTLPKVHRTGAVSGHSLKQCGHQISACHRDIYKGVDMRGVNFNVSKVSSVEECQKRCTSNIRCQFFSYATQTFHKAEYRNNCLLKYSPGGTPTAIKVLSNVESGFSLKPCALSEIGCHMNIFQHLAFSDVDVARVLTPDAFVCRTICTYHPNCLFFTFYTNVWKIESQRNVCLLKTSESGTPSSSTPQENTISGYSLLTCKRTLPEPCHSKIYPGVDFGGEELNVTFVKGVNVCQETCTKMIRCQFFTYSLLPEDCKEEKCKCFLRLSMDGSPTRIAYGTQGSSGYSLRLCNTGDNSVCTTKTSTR
row,EC50 [nM],Compound
1,> 9900,"CNC(=O)[C@H](CCCCNC(C)=O)NC(=O)c1csc([C@@H]2C[C@@H](N)CN2C(=O)c2cn3cc(Cl)ccc3n2)n1 [Compound 26, N—((S)-6-acetamido-1-(methylamino)-1-oxohexan-2-yl)-2-((2S,4R)-4-amino-1-(6-chloroimidazo[1,2-a]pyridine-2-carbonyl)pyrrolidin-2-yl)thiazole-4-carboxamide]"
2,> 9900,"CNC(=O)[C@H](CCCCNC(N)=O)NC(=O)c1csc([C@@H]2C[C@@H](N)CN2C(=O)c2cn3cc(Cl)ccc3n2)n1 [Compound 27, 2-((2S,4R)-4-amino-1-(6-chloroimidazo[1,2-a]pyridine-2-carbonyl)pyrrolidin-2-yl)-N—((S)-1-(methylamino)-1-oxo-6-ureidohexan-2-yl)thiazole-4-carboxamide]"
3,5000 to 9900,"CNC(=O)[C@H](CCCNC(=N)N)NC(=O)c1csc([C@@H]2C[C@@H](N)CN2C(=O)c2cn3cc(Cl)ccc3n2)n1 [Compound 28, 2-((2S,4R)-4-amino-1-(6-chloroimidazo[1,2-a]pyridine-2-carbonyl)pyrrolidin-2-yl)-N—((S)-5-guanidino-1-(methylamino)-1-oxopentan-2-yl)thiazole-4-carboxamide]"
4,> 9900,"CNC(=O)[C@H](CCC(N)=O)NC(=O)c1csc([C@@H]2C[C@@H](N)CN2C(=O)c2cn3cc(Cl)ccc3n2)n1 [Compound 29, (S)-2-(2-((2S,4R)-4-amino-1-(6-chloroimidazo[1,2-a]pyridine-2-carbonyl)pyrrolidin-2-yl)thiazole-4-carboxamido)-N1-methylpentanediamide]"
5,> 9900,"CNC(=O)[C@H](Cc1c[nH]cn1)NC(=O)c1csc([C@@H]2C[C@@H](N)CN2C(=O)c2cn3cc(Cl)ccc3n2)n1 [Compound 30, N—((S)-3-(1H-imidazol-4-yl)-1-(methylamino)-1-oxopropan-2-yl)-2-((2S,4R)-4-amino-1-(6-chloroimidazo[1,2-a]pyridine-2-carbonyl)pyrrolidin-2-yl)thiazole-4-carboxamide]"
6,> 9900,"CNC(=O)[C@H](Cc1c[nH]c2ccccc12)NC(=O)c1csc([C@@H]2C[C@@H](N)CN2C(=O)c2cn3cc(Cl)ccc3n2)n1 [Compound 31, N—((S)-3-(1H-indol-3-yl)-1-(methylamino)-1-oxopropan-2-yl)-2-((2S,4R)-4-amino-1-(6-chloroimidazo[1,2-a]pyridine-2-carbonyl)pyrrolidin-2-yl)thiazole-4-carboxamide]"
7,> 9900,"CNC(=O)[C@H](Cc1ccc(O)cc1)NC(=O)c1csc([C@@H]2C[C@@H](N)CN2C(=O)c2cn3cc(Cl)ccc3n2)n1 [Compound 32, 2-((2S,4R)-4-amino-1-(6-chloroimidazo[1,2-a]pyridine-2-carbonyl)pyrrolidin-2-yl)-N—((S)-3-(4-hydroxyphenyl)-1-(methylamino)-1-oxopropan-2-yl)thiazole-4-carboxamide]"
8,> 9900,"CNC(=O)[C@@H](CCCCNC(=N)N)NC(=O)c1csc([C@@H]2CCCN2C(=O)c2cn3cc(Cl)ccc3n2)n1 [Compound 34, 2-((S)-1-(6-Chloroimidazo[1,2-a]pyridine-2-carbonyl)pyrrolidin-2-yl)-N—((R)-6-guanidino-1-(methylamino)-1-oxohexan-2-yl)thiazole-4-carboxamide]"
9,1000 to 5000,"CNC(=O)[C@H](CCCCNC(=N)N)NC(=O)c1csc([C@@H]2C[C@@H](NC(C)=O)CN2C(=O)c2cn3cc(Cl)ccc3n2)n1 [Compound 35, 2-((2S,4R)-4-acetamido-1-(6-chloroimidazo[1,2-a]pyridine-2-carbonyl)pyrrolidin-2-yl)-N—((S)-6-guanidino-1-(methylamino)-1-oxohexan-2-yl)thiazole-4-carboxamide]"
10,≤ 100,"CNC(=O)[C@H](CCCCNC(=N)N)NC(=O)c1csc([C@@H]2C[C@H](N)CN2C(=O)c2cn3cc(Cl)ccc3n2)n1 [Compound 36, 2-((2S,4S)-4-amino-1-(6-chloroimidazo[1,2-a]pyridine-2-carbonyl)pyrrolidin-2-yl)-N—((S)-6-guanidino-1-(methylamino)-1-oxohexan-2-yl)thiazole-4-carboxamide]"
